Measurements published in US12715846B2, “Crystal form of quinolinone compound and use thereof” (SUNSHINE LAKE PHARMA CO., LTD., priority 2019, dated 2026).

How the values were obtained:
[1] = Pharmacokinetic experiment of the crystal form in Beagle dogs; assay type: in vivo
Method: The crystal form of the compound of formula (I) of the present invention is filled into capsules for oral administration.
8-12 kg male Beagle dogs were taken, and 3 as a group. Capsules containing the test sample were orally administered at a dose of 10 mg/kg and the bloods were collected at time points of 0.25, 0.5, 1.0, 2.0, 4.0, 6.0, 8.0 and 24 h. Standard curve was plotted based on concentrations of the samples in a suitable range, the concentration of the test sample in the plasma sample was measured and quantified by AB SCIEX API4000 LC-MS/MS at MRM mode. Pharmacokinetic parameters were calculated according to drug concentration-time curve using a noncompartmental method by WinNonLin 6.3 software.

[2] = Stability: high-temperature experiment; assay type: physicochemical; settings: for Purity: HPLC
Method: (1) High-temperature experiment: appropriate amount of the test sample was added into a flat weighing bottle, divided into ≤5 mm thick thin layer. The bottle was placed at 60° C.±2° C. for 30 days. Samples were taken on the 6th, 10th, and 30th day, and tested according to the key stability inspection items: the color of the samples were observed, the purities of the samples were determined by HPLC.

[3] = Stability: high-humidity experiment; assay type: physicochemical; settings: for Appearance / Purity: High humidity (RH92.5%); for Purity: HPLC
Method: (2) High-humidity experiment: a batch of the test sample was added into a flat weighing bottle, divided into ≤5 mm thick thin layer. The bottle was placed at 25° C. and RH for 90%±5% for 30 days. Samples were taken on the 6th, 10th, and 30th day, and tested according to the key stability inspection items: the color of the samples were observed, the purities of the samples were determined by HPLC.

[4] = Stability: illumination experiment; assay type: physicochemical; settings: for Appearance / Purity: Illumination; for Purity: HPLC
Method: (3) Illumination experiment: a batch of the test sample was added into a flat weighing bottle, divided into ≤5mm thick thin layer. The bottle was opened and placed in a light box (with UV lamp) under the condition of illuminance of 4500±500 lx and ultraviolet light ≥0.7w/m^2 for 30 days. Samples were taken on the 6th, 13th, and 30th day, the purities of the samples were determined by HPLC.

[5] = Stability: accelerated experiment; assay type: physicochemical; settings: for Appearance / Purity / Moisture content: 40 ± 2° C./75% ± 5% RH; for Purity: HPLC; for Moisture content: by TGA
Method: (4) Accelerated experiment: appropriate amount of the test sample was packed with a single-layer PE and aluminum foil, the sample was placed at 40±2° C./75%±5% RH for 6 months. Samples were taken on the 1st, 2nd, 3rd and 6th month. The color of the samples were observed, the purities of the samples were determined by HPLC, and the moisture content was determined by TGA.

[6] = Hygroscopicity experiment (dynamic moisture adsorption, DVS); assay type: physicochemical
Method: The hygroscopicity of the present invention was measured by a DVS INT-Std dynamic moisture and gas adsorption analyzer from Surface Measurement Systems, UK. The humidity test range was 0%-95%, the airflow rate was 200 mL/min, and the temperature was 25° C. One test point was taken for every 5% increase in humidity.
An appropriate amount of the test sample was taken, the hygroscopicity was tested by dynamic moisture adsorption device.

[7] = Crystal form stability on standing under normal temperature and pressure; assay type: physicochemical; settings: normal temperature and pressure conditions
Solubility experiment = assay type: physicochemical; settings: comparison in words, values not given
Method: The solubility of the present invention was determined using an Agilent 1200 High Performance Liquid Chromatograph DAD/VWD detector with an Agilent XDB-C18 model (4.6×50 mm, 5 μm). The detection wavelength was 266 nm, the flow rate was 1.0 mL/min, and the column temperature was 35° C. The mobile phase A was acetonitrile−0.01 M ammonium acetate=10:90 (V:V), and the analysis method was acetonitrile−mobile phase A=70:30 (V:V). The running time was 10 minutes.

[8] = dog, plasma, po, male Beagle dogs, capsules orally, 10 mg/kg
[9] = 0 day (start, common to all conditions of Table 2)
[10] = High temperature (60° C.), 6th day
[11] = High temperature (60° C.), 10th day
[12] = High temperature (60° C.), 30th day

SMILES: Cn1c(=O)c(C(=O)NCC(=O)O)c(O)c2ccc(Oc3ccccc3)cc21 [Example 1, 2-(4-hydroxy-1-methyl-2-oxo-7-phenoxy-1,2-dihydroquinoline-3-carboxamido)acetic acid]
- exposure in beagle dogs ([1]; beagle dogs, oral capsules 10 mg/kg, conclusion from Table 1): larger exposure
- AUC(0-t) [1, 8]: 9300 ng·h/mL
- Cmax [1, 8]: 2810 ng/mL
- Tmax [1, 8]: 1.17 h
- Appearance [2, 9]: off-white
- Purity [2, 9]: 99.76%
- Appearance [2, 10]: off-white
- Purity [2, 10]: 99.77%
- Appearance [2, 11]: off-white
- Purity [2, 11]: 99.78%
- Appearance [2, 12]: off-white
- Purity [2, 12]: 99.77%
- change of appearance and purity ([2]; high temperature (60° C.), 30 days): no obvious changes
- Appearance ([3]; 6th day): off-white
- Purity ([3]; 6th day): 99.78%
- Appearance ([3]; 10th day): off-white
- Purity ([3]; 10th day): 99.77%
- Appearance ([3]; 30th day): off-white
- Purity ([3]; 30th day): 99.76%
- change of appearance and purity ([3]; high humidity (25° C., RH 90%±5%), 30 days): no obvious changes
- Appearance ([4]; 6th day): off-white
- Purity ([4]; 6th day): 99.77%
- Appearance ([4]; 13th day): off-white
- Purity ([4]; 13th day): 99.77%
- Appearance ([4]; 30th day): off-white
- Purity ([4]; 30th day): 99.72%
- change of appearance and purity ([4]; lighting conditions, 30 days): no obvious changes
- Appearance ([5]; 0 month): off-white
- Purity ([5]; 0 month): 99.78%
- Moisture content ([5]; 0 month): 0.04%
- Appearance ([5]; 1st month): off-white
- Purity ([5]; 1st month): 99.77%
- Moisture content ([5]; 1st month): 0.06%
- Appearance ([5]; 2nd month): off-white
- Purity ([5]; 2nd month): 99.78%
- Moisture content ([5]; 2nd month): 0.07%
- Appearance ([5]; 3rd month): off-white
- Purity ([5]; 3rd month): 99.78%
- Moisture content ([5]; 3rd month): 0.08%
- Appearance ([5]; 6th month): off-white
- Purity ([5]; 6th month): 99.78%
- Moisture content ([5]; 6th month): 0.12%
- change of appearance, purity and moisture content ([5]; accelerated experimental conditions (40±2° C./75%±5% RH, 6 months)): no obvious changes
- hygroscopicity feature ([6]; Chinese Pharmacopoeia 2015 General Principle 9103 classes (Table 5)): lightly hygroscopic
- Weight gain at 60% relative humidity ([6]; DVS, 25° C., 60% relative humidity): 0.27%
- Weight gain at 80% relative humidity ([6]; DVS, 25° C., 80% relative humidity): 0.38%
- Weight gain at 95% relative humidity ([6]; DVS, 25° C., 95% relative humidity): 0.57%
- crystal transformation on standing ([7]; listed as crystal form I): does not undergo crystal transformation
- solubility compared with crystal form II (Solubility experiment): better solubility

SMILES: Cn1c(=O)c(C(=O)NCC(=O)O)c(O)c2ccc(Oc3ccccc3)cc21 [crystal form II, 2-(4-hydroxy-1-methyl-2-oxo-7-phenoxy-1,2-dihydroquinoline-3-carboxamido)acetic acid]
- crystal transformation on standing [7]: easy to undergo crystal transformation
